Assay results published in patent US4269834A, “Copper complexes of isoquinazolines” (priority 1977, dated 1981).
Converted amounts (≈) assume the structure as drawn. Read-outs that look alike come from different tables or passages of the source.

Test system: Mycoplasma gallisepticum
Assay: Activity against Mycoplasma gallisepticum (minimum inhibiting concentration)
Type: cell-based
Conditions: for MIC with Cu: media containing 50 μg/ml Cu^2+; for MIC: without added Cu; for MIC M. gall. with Cu: with Cu (50 μg/ml Cu^2+)
From the text: The following tables show some activities--expressed as minimum inhibiting concentration (MIC)--of the prepared compounds against various micro-organisms. The compounds are identified by reference to the Example in which they are described. When more than one compound is mentioned in an Example, they are distinguished by a number between parentheses, corresponding to their order of occurrence, for instance: VI (2) refers to the second compound prepared according to Example VI. The term "with Cu" refers to tests conducted in media containing 50 μg/ml Cu^2+.
The activities of the following compounds, not mentioned in the Examples, were also measured.

[1] = Mycoplasmoides gallisepticum, Table I, read-out: MIC
[2] = Mycoplasmoides gallisepticum, Table IVb, read-out: MIC M. gall.

Cc1cccc(-c2cc3ccccc3cn2)n1 [XIc, 3-(6-methyl-2-pyridyl)isoquinoline]
MIC with Cu (Table I): 0.1 µg/mL

C=Cn1ccnc1-c1cc2ccccc2c(N)n1.C=Cn1ccnc1-c1cc2ccccc2c(N)n1.O=[N+]([O-])[O-].[Cu+] [XVIId (1), Bis[1-amino-3-(1-ethenyl-1H-imidazole-2-yl)isoquinoline]cuprous nitrate]
MIC with Cu (Table I): 0.2 µg/mL | MIC (Table I): 25 µg/mL

Nc1nc(-c2ccccn2)cc2ccccc12.O=[N+]([O-])[O-].O=[N+]([O-])[O-].[Cu+2] [IVa, Mono[1-amino-3-(2-pyridyl)isoquinoline]cupric nitrate]
MIC (Table I): 1.5 µg/mL

Nc1nc(-c2ccccn2)cc2c(Cl)cccc12.Nc1nc(-c2ccccn2)cc2c(Cl)cccc12.O=[N+]([O-])[O-].[Cu+] [IIa, Bis[1-amino-5-chloro-3-(2-pyridyl)isoquinoline]cuprous nitrate]
MIC (Table I): 1.5 µg/mL

Nc1nc(-c2ccccn2)cc2ccc(I)cc12 [VIIIl]
MIC with Cu (Table I): 0.2 µg/mL

Cc1ccc2c(N)nc(-c3ccccn3)cc2c1 [VIIIc]
MIC [1]: 3 µg/mL (≈ 12.8 µM) | MIC with Cu (Table I): 0.4 µg/mL

C=Cn1ccnc1-c1cc2ccccc2c(N)n1 [Example XVIIc, 1-amino-3-(1-ethenyl-1H-imidazole-2-yl) isoquinoline]
MIC [1]: > 100 µg/mL | MIC with Cu (Table I): 0.2 µg/mL

Clc1nc(-c2ccccn2)cc2ccccc12 [XIIc (2), 1-chloro-3-(2-pyridyl)isoquinoline]
MIC with Cu (Table I): 0.06 µg/mL

Cn1ccnc1-c1nc(N)c2ccccc2n1.Cn1ccnc1-c1nc(N)c2ccccc2n1.O=[N+]([O-])[O-].O=[N+]([O-])[O-].[Cu+2] [XVIb (3), Bis[4-amino-2-(1-methyl-1H-imidazole-2-yl)quinazoline]cupric nitrate]
MIC with Cu (Table I): 0.2 µg/mL | MIC (Table I): 12.5 µg/mL

Cn1ccnc1-c1cc2ccccc2c(N)n1.Cn1ccnc1-c1cc2ccccc2c(N)n1.O=[N+]([O-])[O-].O=[N+]([O-])[O-].[Cu+2] [XVb (3), Bis[1-amino-3-(1-methyl-1H-imidazole-2-yl)isoquinoline]cupric nitrate]
MIC with Cu (Table I): 1.5 µg/mL | MIC (Table I): 12.5 µg/mL

Nc1nc(-c2ccccn2)cc2ccccc12.Nc1nc(-c2ccccn2)cc2ccccc12.O=[N+]([O-])[O-].[Cu+] [IIc, Bis[1-amino-3-(2-pyridyl)isoquinoline]cuprous nitrate]
MIC with Cu (Table I): 0.4 µg/mL | MIC (Table I): 3 µg/mL

Nc1ccc2ccc3cccnc3c2n1 [F]
MIC [2]: 25 µg/mL (≈ 128 µM) | MIC M. gall. with Cu (Table IVb): 0.8 µg/mL

Cn1ccnc1-c1nc(N)c2ccccc2n1.Cn1ccnc1-c1nc(N)c2ccccc2n1.O=[N+]([O-])[O-].[Cu+] [XVIb (1), Bis[4-amino-2-(1-methyl-1H-imidazole-2-yl)quinazoline]cuprous nitrate]
MIC with Cu (Table I): 0.2 µg/mL | MIC (Table I): 6 µg/mL

COc1cc2cc(-c3ccccn3)nc(N)c2cc1OC [VIIIa]
MIC [1]: 100 µg/mL (≈ 355 µM) | MIC with Cu (Table I): 12.5 µg/mL

COc1ccc2ccc3cccnc3c2n1 [G]
MIC [2]: > 100 µg/mL | MIC M. gall. with Cu (Table IVb): 3 µg/mL

Cc1cccc2c(N)nc(-c3ccccn3)cc12 [VIIIb]
MIC [1]: 1.5 µg/mL (≈ 6.38 µM) | MIC with Cu (Table I): 0.2 µg/mL

CCCc1nc(-c2ccccn2)cc2ccccc12.Cl [XIIIf, 1-propyl-3-(2-pyridyl)isoquinoline hydrochloride]
MIC with Cu (Table I): 0.03 µg/mL

Nc1nc(-c2ncc[nH]2)cc2ccccc12.Nc1nc(-c2ncc[nH]2)cc2ccccc12.O=[N+]([O-])[O-].O=[N+]([O-])[O-].[Cu+2] [XIXb (3), Bis[1-amino-3-(1H-imidazole-2-yl)isoquinoline]cupric nitrate]
MIC with Cu (Table I): 3 µg/mL | MIC (Table I): 50 µg/mL

Cl.Cl.Nc1nc(-c2ncc[nH]2)nc2ccccc12 [XXa, 4-amino-2(1H-imidazole-2-yl)quinazoline dihydrochloride]
MIC [1]: > 100 µg/mL | MIC with Cu (Table I): 3 µg/mL

Nc1ccc2ccc3ccc(N)nc3c2n1 [E]
MIC [2]: 50 µg/mL (≈ 238 µM) | MIC M. gall. with Cu (Table IVb): 0.8 µg/mL

Cc1ccc2cc(-c3ccccn3)nc(N)c2c1 [VIIId]
MIC [1]: 1.5 µg/mL (≈ 6.38 µM) | MIC with Cu (Table I): 0.2 µg/mL

Cc1cccc(-c2cc3ccccc3c(N)n2)n1.O=[N+]([O-])[O-].O=[N+]([O-])[O-].[Cu+2] [IVc, Mono[1-amino-3-(6-methyl-2-pyridyl)isoquinoline]cupric nitrate]
MIC (Table I): 0.8 µg/mL

C=Cn1ccnc1-c1nc(N)c2ccccc2n1.C=Cn1ccnc1-c1nc(N)c2ccccc2n1.O=[N+]([O-])[O-].[Cu+] [XVIIIb (1), Bis[4-amino-2-(1-ethenyl-1H-imidazole-2-yl)quinazoline]cuprous nitrate]
MIC with Cu (Table I): 0.2 µg/mL | MIC (Table I): 12.5 µg/mL

CCc1ccc2cc(-c3ccccn3)nc(N)c2c1 [VIIIk]
MIC with Cu (Table I): 0.2 µg/mL

O=[N+]([O-])[O-].[Cu+].c1cnc2c(c1)ccc1cccnc12.c1cnc2c(c1)ccc1cccnc12 [IId, Bis(1,10-phenanthroline)cuprous nitrate]
MIC with Cu (Table I): 25 µg/mL | MIC (Table I): 12.5 µg/mL

C=Cn1ccnc1-c1nc(N)c2ccccc2n1.C=Cn1ccnc1-c1nc(N)c2ccccc2n1.O=[N+]([O-])[O-].O=[N+]([O-])[O-].[Cu+2] [XVIIIb (3), Bis[4-amino-2-(1-ethenyl-1H-imidazole-2-yl)quinazoline]cupric nitrate]
MIC with Cu (Table I): 0.2 µg/mL | MIC (Table I): 12.5 µg/mL

Cn1ccnc1-c1nc(N)c2ccccc2n1.O=[N+]([O-])[O-].O=[N+]([O-])[O-].[Cu+2] [XVIb (2), Mono[4-amino-2-(1-methyl-1H-imidazole-2-yl)quinazoline]cupric nitrate]
MIC with Cu (Table I): 0.4 µg/mL | MIC (Table I): 6 µg/mL

Cc1cccc(-c2cc3ccccc3c(N)n2)n1.Cc1cccc(-c2cc3ccccc3c(N)n2)n1.O=[N+]([O-])[O-].O=[N+]([O-])[O-].[Cu+2] [VI (2), bis[1-amino-3-(6-methyl-2-pyridyl)isoquinoline]cupric nitrate]
MIC (Table I): 0.8 µg/mL

Cn1ccnc1-c1nc(N)c2ccccc2n1 [XVIa, 4-amino-2-(1-methyl-1H-imidazole-2-yl)quinazoline]
MIC [1]: 25 µg/mL (≈ 111 µM) | MIC with Cu (Table I): 0.2 µg/mL

Nc1nc(-c2ccccn2)cc2ccccc12.Nc1nc(-c2ccccn2)cc2ccccc12.O=[N+]([O-])[O-].O=[N+]([O-])[O-].[Cu+2] [Example V, bis[1-amino-3-(2-pyridyl)isoquinoline]cupric nitrate]
MIC (Table I): 3 µg/mL

Clc1ccc2ccc3ccc(Cl)nc3c2n1.Clc1ccc2ccc3ccc(Cl)nc3c2n1.O=[N+]([O-])[O-].[Cu+] [IIe, Bis(2,9-dichloro-1,10-phenanthroline)cuprous nitrate]
MIC (Table I): 25 µg/mL

Nc1nc(-c2ccccn2)cc2ccc(Cl)cc12 [VIIIi]
MIC with Cu (Table I): 0.2 µg/mL

Nc1nc(-c2ncc[nH]2)cc2ccccc12.O=[N+]([O-])[O-].O=[N+]([O-])[O-].[Cu+2] [XIXb (2), Mono[1-amino-3-(1H-imidazole-2-yl)isoquinoline]cupric nitrate]
MIC with Cu (Table I): 3 µg/mL | MIC (Table I): 50 µg/mL

Nc1nc(-c2ccccn2)cc2c(Cl)cccc12.O=[N+]([O-])[O-].O=[N+]([O-])[O-].[Cu+2] [IVb, Mono[1-amino-5-chloro-3-(2-pyridyl)isoquinoline]cupric nitrate]
MIC (Table I): 0.8 µg/mL

Nc1nc(-c2ccccn2)cc2cccc(Cl)c12 [VIIIj]
MIC [1]: 100 µg/mL (≈ 391 µM) | MIC with Cu (Table I): 0.2 µg/mL

c1ccc(-c2ncc3ccccc3n2)nc1 [B]
MIC M. gall. with Cu (Table IVb): 0.5 µg/mL

Nc1nc(-c2ncc[nH]2)nc2ccccc12.O=[N+]([O-])[O-].O=[N+]([O-])[O-].[Cu+2] [XXb (2), Mono[4-amino-2-(1H-imidazole-2-yl)quinazoline]cupric nitrate]
MIC with Cu (Table I): 1.5 µg/mL | MIC (Table I): 25 µg/mL

Cl.Nc1nc(-c2ccccn2)cc2cc(Cl)ccc12 [Example VII, 1-amino-6-chloro-3-(2-pyridyl)isoquinoline hydrochloride]
MIC with Cu (Table I): 0.4 µg/mL

Cn1ccnc1-c1cc2ccccc2c(N)n1.O=[N+]([O-])[O-].O=[N+]([O-])[O-].[Cu+2] [XVb (2), mono[1-amino-3-(1-methyl-1H-imidazole-2-yl)isoquinoline]cupric nitrate]
MIC with Cu (Table I): 1.5 µg/mL | MIC (Table I): 12.5 µg/mL

Cc1cccc(-c2cc3ccccc3c(Cl)n2)n1 [XIb, 1-Chloro-3-(6-methyl-2-pyridyl)isoquinoline]
MIC with Cu (Table I): 1 µg/mL

Cc1ccc2cc(-c3ccccn3)nc(N)c2c1.Cc1ccc2cc(-c3ccccn3)nc(N)c2c1.O=[N+]([O-])[O-].[Cu+] [IIb, Bis[1-amino-7-methyl-3-(2-pyridyl)isoquinoline]cuprous nitrate]
MIC (Table I): 6 µg/mL

C=Cn1ccnc1-c1nc(N)c2ccccc2n1.O=[N+]([O-])[O-].O=[N+]([O-])[O-].[Cu+2] [XVIIIb (2), Mono[4-amino-2-(1-ethenyl-1H-imidazole-2-yl)quinazoline]cupric nitrate]
MIC with Cu (Table I): 0.2 µg/mL | MIC (Table I): 6 µg/mL

Cl.Nc1nc(-c2ccccn2)cc2cc(Br)ccc12 [Example X, 1-Amino-6-bromo-3-(2-pyridyl)isoquinoline hydrochloride]
MIC with Cu (Table I): 0.4 µg/mL

Nc1nc(-c2ncc[nH]2)nc2ccccc12.Nc1nc(-c2ncc[nH]2)nc2ccccc12.O=[N+]([O-])[O-].O=[N+]([O-])[O-].[Cu+2] [XXb (3), Bis[4-amino-2-(1H-imidazole-2-yl)quinazoline]cupric nitrate]
MIC with Cu (Table I): 6 µg/mL | MIC (Table I): 50 µg/mL

C=Cn1ccnc1-c1cc2ccccc2c(N)n1.O=[N+]([O-])[O-].O=[N+]([O-])[O-].[Cu+2] [XVIId (2), Mono[1-amino-3-(1-ethenyl-1H-imidazole-2-yl)isoquinoline]cupric nitrate]
MIC with Cu (Table I): 0.2 µg/mL | MIC (Table I): 12.5 µg/mL
